Where “and” joins values, the source holds several entries; their conditions need not be identical. Equal values may be shown once.
Tests used:
[1] = tested on: patients with Severe Refractory Chronic Hand Eczema (CHE); assay: Clinical trial simulation (longitudinal dose response model): time from initial dose to onset of effect; assay type: in vivo, human; details: for Time to Onset of Effect (a Drop of 2 or More Points in PGA in 30% of Subjects): 30 mg
Description: (§1) In reviewing the data to make these determinations, all available PGA scores observed (not including scores derived from missing data such as last observation carried forward (LOCF) including those at baseline, every 4 weeks during treatment, and every 4 to 8 weeks after cessation of treatment for up to 72 weeks post treatment from the various clinical trials were used to develop a longitudinal dose response model.
(§2) In clinical studies, efficacy was measured using PGA score and modified total lesion signs and symptoms (mTLSS) at various times during and post treatment. PGA scores over time were chosen for this analysis because PGA scores were the primary endpoint in the Phase III studies and were collected at more time points than the mTLSS. The PGA was graded according to 5 point scale (clear, almost clear, mild disease, moderate disease, severe disease). The mTLSS severity score was graded 0 to 3 for 7 parameters.
A >2 weeks time to onset is considered clinically relevant.

[2] = tested on: patients with Severe Refractory Chronic Hand Eczema (CHE); assay: Clinical trial simulation (longitudinal dose response model): no relapse (PGA ≠ 5) by 6 months post treatment; assay type: in vivo, human; details: for Proportion of Responders Who Did Not Relapse (PGA ≠ 5) 6 months Post Treatment / Proportion of Subjects with PGA = 1 at end of treatment who did not relapse (PGA ≠ 5) 6 Months Post Treatment / Proportion of Subjects with PGA = 2 at the end of treatment who did not relapse (PGA ≠ 5) 6 Months Post Treatment / Proportion of Subjects with PGA = 3 at the end of treatment who did not relapse (PGA ≠ 5) 6 Months Post Treatment / Proportion of Subjects with PGA = 1 Who Did Not Relapse (PGA ≠ 5) 6 Months Post Treatment / Proportion of Subjects with PGA = 2 Who Did Not Relapse (PGA ≠ 5) 6 Months Post Treatment / Proportion of Subjects with PGA = 3 Who Did Not Relapse (PGA ≠ 5) 6 Months Post Treatment: 30 mg
Description: as §1, §2
For the Physician Global Assessment (PGA), a general description of CHE severity, which is a well recognized scale is shown below in Table 7 for clarification purposes.

Structure (SMILES): CC1=C(/C=C/C(C)=C\C=C\C(C)=C\C(=O)O)C(C)(C)CCC1 [Alitretinoin, 9-cis isomer of retinoic acid (RA)]
- faster time to onset of effect ([1]; 65 or 75 year old compared with a 30 year old): > 2 weeks
- Time to Onset of Effect (a Drop of 2 or More Points in PGA in 30% of Subjects) ([1]; age 30 yr): 58 (49, 70) Days
- Time to Onset of Effect (a Drop of 2 or More Points in PGA in 30% of Subjects) ([1]; age 50 yr): 49 (42, 56) Days
- Time to Onset of Effect (a Drop of 2 or More Points in PGA in 30% of Subjects) ([1]; age 65 yr): 43 (35, 49) Days
- Time to Onset of Effect (a Drop of 2 or More Points in PGA in 30% of Subjects) ([1]; age 75 yr): 39 (35, 42) Days
- subjects who responded (PGA score=1 or 2) who would not return to severe disease within 6 months post treatment ([2]; PGA score=1 or 2): > 83%
- difference between a 75 year old and 30 year old in the proportion of patients who did not relapse (PGA score≠5) 6 months after treatment ([2]; PGA=1 or PGA=2 at end of treatment (individually)): 10%
- Proportion of Responders Who Did Not Relapse (PGA ≠ 5) 6 months Post Treatment ([2]; age 30 yr): 79% and 78.7 (67, 90) %
- Proportion of Subjects with PGA = 1 at end of treatment who did not relapse (PGA ≠ 5) 6 Months Post Treatment ([2]; age 30 yr): 77.7 (56, 92) %
- Proportion of Subjects with PGA = 2 at the end of treatment who did not relapse (PGA ≠ 5) 6 Months Post Treatment ([2]; age 30 yr): 77.6 (62, 91) %
- Proportion of Subjects with PGA = 3 at the end of treatment who did not relapse (PGA ≠ 5) 6 Months Post Treatment ([2]; age 30 yr): 76.8 (63, 89) %
- Proportion of Responders Who Did Not Relapse (PGA ≠ 5) 6 months Post Treatment ([2]; age 50 yr): 83.2 (73, 92) %
- Proportion of Subjects with PGA = 1 at end of treatment who did not relapse (PGA ≠ 5) 6 Months Post Treatment ([2]; age 50 yr): 82.4 (65, 94) %
- Proportion of Subjects with PGA = 2 at the end of treatment who did not relapse (PGA ≠ 5) 6 Months Post Treatment ([2]; age 50 yr): 82.6 (70, 93) %
- Proportion of Subjects with PGA = 3 at the end of treatment who did not relapse (PGA ≠ 5) 6 Months Post Treatment ([2]; age 50 yr): 81.1 (68, 93) %
- Proportion of Responders Who Did Not Relapse (PGA ≠ 5) 6 months Post Treatment ([2]; age 65 yr): 87% and 86.6 (78, 94) %
- Proportion of Subjects with PGA = 1 at end of treatment who did not relapse (PGA ≠ 5) 6 Months Post Treatment ([2]; age 65 yr): 86.0 (73, 95) %
- Proportion of Subjects with PGA = 2 at the end of treatment who did not relapse (PGA ≠ 5) 6 Months Post Treatment ([2]; age 65 yr): 86.0 (74, 96) %
- Proportion of Subjects with PGA = 3 at the end of treatment who did not relapse (PGA ≠ 5) 6 Months Post Treatment ([2]; age 65 yr): 84.3 (72, 95) %
- Proportion of Responders Who Did Not Relapse (PGA ≠ 5) 6 months Post Treatment ([2]; age 75 yr): 89% and 88.7 (81, 95) %
- Proportion of Subjects with PGA = 1 at end of treatment who did not relapse (PGA ≠ 5) 6 Months Post Treatment ([2]; age 75 yr): 88.1 (76, 96) %
- Proportion of Subjects with PGA = 2 at the end of treatment who did not relapse (PGA ≠ 5) 6 Months Post Treatment ([2]; age 75 yr): 88.0 (78, 96) %
- Proportion of Subjects with PGA = 3 at the end of treatment who did not relapse (PGA ≠ 5) 6 Months Post Treatment ([2]; age 75 yr): 86.5 (74, 96) %
- Proportion of Responders Who Did Not Relapse (PGA ≠ 5) 6 months Post Treatment ([2]; duration of treatment 4 weeks): 79.2 (68, 89) %
- Proportion of Subjects with PGA = 1 Who Did Not Relapse (PGA ≠ 5) 6 Months Post Treatment ([2]; duration of treatment 4 weeks): 79.8 (61, 93) %
- Proportion of Subjects with PGA = 2 Who Did Not Relapse (PGA ≠ 5) 6 Months Post Treatment ([2]; duration of treatment 4 weeks): 77.9 (64, 91) %
- Proportion of Subjects with PGA = 3 Who Did Not Relapse (PGA ≠ 5) 6 Months Post Treatment ([2]; duration of treatment 4 weeks): 76.4 (62, 88) %
- Proportion of Responders Who Did Not Relapse (PGA ≠ 5) 6 months Post Treatment ([2]; duration of treatment 8 weeks): 80.7 (70, 90) %
- Proportion of Subjects with PGA = 1 Who Did Not Relapse (PGA ≠ 5) 6 Months Post Treatment ([2]; duration of treatment 8 weeks): 81.0 (63, 94) %
- Proportion of Subjects with PGA = 2 Who Did Not Relapse (PGA ≠ 5) 6 Months Post Treatment ([2]; duration of treatment 8 weeks): 79.5 (67, 92) %
- Proportion of Subjects with PGA = 3 Who Did Not Relapse (PGA ≠ 5) 6 Months Post Treatment ([2]; duration of treatment 8 weeks): 77.8 (65, 89) %
- Proportion of Responders Who Did Not Relapse (PGA ≠ 5) 6 months Post Treatment ([2]; duration of treatment 12 weeks): 82.3 (68, 95) %
- Proportion of Subjects with PGA = 1 Who Did Not Relapse (PGA ≠ 5) 6 Months Post Treatment ([2]; duration of treatment 12 weeks): 81.9 (64, 94) %
- Proportion of Subjects with PGA = 2 Who Did Not Relapse (PGA ≠ 5) 6 Months Post Treatment ([2]; duration of treatment 12 weeks): 80.8 (68, 92) %
- Proportion of Subjects with PGA = 3 Who Did Not Relapse (PGA ≠ 5) 6 Months Post Treatment ([2]; duration of treatment 12 weeks): 79.1 (67, 90) %
- Proportion of Responders Who Did Not Relapse (PGA ≠ 5) 6 months Post Treatment ([2]; duration of treatment 16 weeks): 83.3 (72, 94) %
- Proportion of Subjects with PGA = 1 Who Did Not Relapse (PGA ≠ 5) 6 Months Post Treatment ([2]; duration of treatment 16 weeks): 82.5 (66, 94) %
- Proportion of Subjects with PGA = 2 Who Did Not Relapse (PGA ≠ 5) 6 Months Post Treatment ([2]; duration of treatment 16 weeks): 81.7 (69, 92) %
- Proportion of Subjects with PGA = 3 Who Did Not Relapse (PGA ≠ 5) 6 Months Post Treatment ([2]; duration of treatment 16 weeks): 80.1 (67, 91) %
- Proportion of Responders Who Did Not Relapse (PGA ≠ 5) 6 months Post Treatment ([2]; duration of treatment 20 weeks): 83.9 (72, 94) %
- Proportion of Subjects with PGA = 1 Who Did Not Relapse (PGA ≠ 5) 6 Months Post Treatment ([2]; duration of treatment 20 weeks): 83.1 (67, 94) %
- Proportion of Subjects with PGA = 2 Who Did Not Relapse (PGA ≠ 5) 6 Months Post Treatment ([2]; duration of treatment 20 weeks): 82.6 (69, 94) %
- Proportion of Subjects with PGA = 3 Who Did Not Relapse (PGA ≠ 5) 6 Months Post Treatment ([2]; duration of treatment 20 weeks): 80.9 (68, 92) %

From US20150202172A1, “NOVEL METHOD OF USE” (Glaxo Group Limited, priority 2014, published 2015)
